Assay results taken from PubChem BioAssay AID330 (DTP/NCI, 2004).
“And” between values parts separate entries of the source, which are not always exact repeats. Equal entries are not always repeated. Inconclusive results and toxic doses are left out. The calls were made as follows: active = survival T/C of 150% or more; inactive = T/C below 125% in these data.

Tested on: P388 leukemia ip, CD2F1 mice, survival T/C
Experiment: NCI In Vivo Anticancer Drug Screen. Data for tumor model P388 Leukemia (intraperitoneal) in CD2F1 (CDF1) mice
Conditions: endpoint: median survival time, higher = longer survival
Procedure, shortened: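 Mice carrying the transplanted tumor received test compound or vehicle. Survival was recorded in each group, and the value is the treated-group measurement divided by that of the vehicle-treated control group.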

[1] = dose: 50.0 mg/kg/injection, schedule: Q01DX005 (ip), vehicle: Klucel (hydroxypropylcellulose) (HPC)
[2] = dose: 100.0 mg/kg/injection, schedule: Q01DX005 (ip), vehicle: Klucel (hydroxypropylcellulose) (HPC)
[3] = dose: 200.0 mg/kg/injection, schedule: Q01DX005 (ip), vehicle: Klucel (hydroxypropylcellulose) (HPC)
[4] = dose: 6.25 mg/kg/injection, schedule: Q01DX009 (ip), vehicle: saline with Tween-80
[5] = dose: 12.5 mg/kg/injection, schedule: Q01DX009 (ip), vehicle: saline with Tween-80
[6] = dose: 25.0 mg/kg/injection, schedule: Q01DX009 (ip), vehicle: saline with Tween-80
[7] = dose: 50.0 mg/kg/injection, schedule: Q01DX005 (ip), vehicle: saline with Tween-80
[8] = dose: 50.0 mg/kg/injection, schedule: Q01DX009 (ip), vehicle: saline with Tween-80
[9] = dose: 100.0 mg/kg/injection, schedule: Q01DX005 (ip), vehicle: saline with Tween-80
[10] = dose: 200.0 mg/kg/injection, schedule: Q01DX005 (ip), vehicle: saline with Tween-80
[11] = dose: 100.0 mg/kg/injection, schedule: Q01DX009 (ip), vehicle: Klucel (hydroxypropylcellulose) (HPC)
[12] = dose: 100.0 mg/kg/injection, schedule: Q01DX009 (ip), vehicle: saline with Tween-80
[13] = dose: 50.0 mg/kg/injection, schedule: Q01DX009 (ip), vehicle: Klucel (hydroxypropylcellulose) (HPC)
[14] = dose: 200.0 mg/kg/injection, schedule: Q01DX009 (ip), vehicle: Klucel (hydroxypropylcellulose) (HPC)

Measured: T/C

NNC(=O)CS(=O)(=O)NCc1ccccc1
inactive: [1] 100 % of control | [2] 99 % of control | [3] 97 % of control

CCN(CC)CCOc1ccc(/C(=C(\Cl)c2ccccc2)c2ccccc2)cc1
inactive: dose: 3.13 mg/kg/injection, schedule: Q01DX009 (ip), vehicle: saline with Tween-80 96 % of control | [4] 119 % of control | [5] 117 % of control | [6] 122 % of control | [7] 93 % of control | [8] 104 % of control | [9] 96 % of control | [10] 93 % of control

CC1=C(C)C(=O)O[C@@H]([C@](C)(O)[C@]2(O)CC[C@@]3(O)[C@@H]4C[C@H](O)[C@]5(O)[C@@H](O)C=CC(=O)[C@]5(C)[C@H]4CC[C@]23C)C1
inactive: dose: 4.0 mg/kg/injection, schedule: Q01DX005 (ip), vehicle: distilled water + Tween-80 100 % of control | dose: 8.0 mg/kg/injection, schedule: Q01DX005 (ip), vehicle: distilled water + Tween-80 102 % of control | dose: 16.0 mg/kg/injection, schedule: Q01DX005 (ip), vehicle: distilled water + Tween-80 107 % of control | dose: 32.0 mg/kg/injection, schedule: Q01DX005 (ip), vehicle: distilled water + Tween-80 106 % of control and 112 % of control | dose: 64.0 mg/kg/injection, schedule: Q01DX005 (ip), vehicle: distilled water + Tween-80 99 % of control and 107 % of control | dose: 128.0 mg/kg/injection, schedule: Q01DX005 (ip), vehicle: distilled water + Tween-80 99 % of control

CC(=O)NC1C(Nc2ccc(S(=O)(=O)NC(C)=O)cc2)OC(CO)C(O)C1O (stereo not given)
inactive: dose: 50.0 mg/kg/injection, schedule: Q01DX005 (ip), vehicle: saline 100 % of control | dose: 100.0 mg/kg/injection, schedule: Q01DX005 (ip), vehicle: saline 97 % of control | dose: 200.0 mg/kg/injection, schedule: Q01DX005 (ip), vehicle: saline 97 % of control

COC(=O)C1C2C=CC(CC2)C1C(=O)OC (stereo not given)
inactive: dose: 100.0 mg/kg/injection, schedule: Q04DX003 (ip), vehicle: saline with Tween-80 98 % of control | dose: 200.0 mg/kg/injection, schedule: Q04DX003 (ip), vehicle: saline with Tween-80 102 % of control | dose: 400.0 mg/kg/injection, schedule: Q04DX003 (ip), vehicle: saline with Tween-80 89 % of control

CN1C(=O)C(O)(c2c3c(c(C4(O)C(=O)N(C)c5ccccc54)c4c2OCO4)OCO3)c2ccccc21 (stereo not given)
inactive: dose: 60.0 mg/kg/injection, schedule: Q01DX005 (ip), vehicle: saline with Tween-80 89 % of control | dose: 120.0 mg/kg/injection, schedule: Q01DX005 (ip), vehicle: saline with Tween-80 91 % of control | dose: 240.0 mg/kg/injection, schedule: Q01DX005 (ip), vehicle: saline with Tween-80 91 % of control

Cc1c(C)[n+](=O)c2ccc(/C=N/N3CCOC3=O)cc2n1[O-]
inactive: dose: 6.25 mg/kg/injection, schedule: Q01DX009 (ip), vehicle: Klucel (hydroxypropylcellulose) (HPC) 106 % of control | dose: 12.5 mg/kg/injection, schedule: Q01DX009 (ip), vehicle: Klucel (hydroxypropylcellulose) (HPC) 97 % of control | dose: 25.0 mg/kg/injection, schedule: Q01DX009 (ip), vehicle: Klucel (hydroxypropylcellulose) (HPC) 102 % of control | [11] 90 % of control

Cc1cc(Cl)ccc1S(=O)(=O)Cl
inactive: [8] 104 % of control | [12] 103 % of control

c1ccc(-c2cc(Nc3ccc4c(c3)OCO4)c3cc4c(cc3n2)OCO4)cc1
inactive: [1] 101 % of control | [2] 101 % of control | [3] 97 % of control

O=C(NCc1cc(CNC(=O)c2cccc(O)c2O)cc(CNC(=O)c2cccc(O)c2O)c1)c1cccc(O)c1O
inactive: dose: 12.5 mg/kg/injection, schedule: Q01DX005 (ip), vehicle: saline with Tween-80 93 % of control | dose: 25.0 mg/kg/injection, schedule: Q01DX005 (ip), vehicle: saline with Tween-80 102 % of control | [7] 99 % of control and 107 % of control

CC(C)CC(NC(=O)C(CCCCN)N(C(=O)OCc1ccccc1)C(=O)OCc1ccccc1)C(=O)O (stereo not given)
inactive: [7] 99 % of control | [9] 99 % of control | [10] 90 % of control

CCCOc1ccc(C#N)cc1
inactive: [13] 102 % of control | [11] 108 % of control | [14] 99 % of control

CO/N=C1/C=CC(Cl)=C/C1=C(\c1ccccc1Cl)C(C#N)c1ccccc1Cl (stereo not given)
inactive: dose: 100.0 mg/kg/injection, schedule: Q01DX001 (ip), vehicle: saline with Tween-80 94 % of control | dose: 200.0 mg/kg/injection, schedule: Q01DX001 (ip), vehicle: saline with Tween-80 102 % of control | dose: 400.0 mg/kg/injection, schedule: Q01DX001 (ip), vehicle: saline with Tween-80 92 % of control

CO/C=C1\CC(=O)N(c2ccccc2)C1=O
inactive: dose: 100.0 mg/kg/injection, schedule: Q04DX003 (ip), vehicle: saline 106 % of control | dose: 200.0 mg/kg/injection, schedule: Q04DX003 (ip), vehicle: saline 100 % of control | dose: 400.0 mg/kg/injection, schedule: Q04DX003 (ip), vehicle: saline 97 % of control

OCC1OC(n2nc(Cl)c3ccccc32)C(O)C1O (stereo not given)
inactive: [4] 102 % of control | [5] 98 % of control | [6] 94 % of control | dose: 32.0 mg/kg/injection, schedule: Q01DX002 (ip), vehicle: saline with Tween-80 104 % of control | dose: 64.0 mg/kg/injection, schedule: Q01DX002 (ip), vehicle: saline with Tween-80 106 % of control and 107 % of control | [12] 91 % of control | dose: 128.0 mg/kg/injection, schedule: Q01DX002 (ip), vehicle: saline with Tween-80 106 % of control and 107 % of control

C[n+]1c(/C=C2/SC=C(c3ccccc3)S2)ccc2ccccc21
inactive: dose: 0.78 mg/kg/injection, schedule: Q04DX002 (ip), vehicle: saline with Tween-80 102 % of control and 119 % of control | dose: 1.56 mg/kg/injection, schedule: Q04DX002 (ip), vehicle: saline with Tween-80 109 % of control and 123 % of control | dose: 3.12 mg/kg/injection, schedule: Q04DX002 (ip), vehicle: saline with Tween-80 119 % of control

C(=C\c1ccccc1)/c1ccccc1
inactive: dose: 6.25 mg/kg/injection, schedule: Q01DX005 (ip), vehicle: saline 100 % of control | dose: 12.5 mg/kg/injection, schedule: Q01DX005 (ip), vehicle: saline 109 % of control | dose: 25.0 mg/kg/injection, schedule: Q01DX005 (ip), vehicle: saline 94 % of control

COc1ccccc1/C=C\C1=CC(=O)CC(c2ccccc2OC)C1C (stereo not given)
inactive: dose: 50.0 mg/kg/injection, schedule: Q01DX001 (ip), vehicle: Klucel (hydroxypropylcellulose) (HPC) 104 % of control | dose: 100.0 mg/kg/injection, schedule: Q01DX001 (ip), vehicle: Klucel (hydroxypropylcellulose) (HPC) 100 % of control | dose: 200.0 mg/kg/injection, schedule: Q01DX001 (ip), vehicle: Klucel (hydroxypropylcellulose) (HPC) 91 % of control

CCOC(=O)CC1=CS/C(=C(/C#N)C(=O)OCC)S1
inactive: [7] 93 % of control | [9] 98 % of control | [10] 94 % of control

Cc1ccc(N2C(=O)CCSC2=S)cc1Cl
inactive: [13] 115 % of control | dose: 50.0 mg/kg/injection, schedule: Q01DX009 (ip), vehicle: suspension in saline 87 % of control | [11] 114 % of control and 122 % of control | dose: 100.0 mg/kg/injection, schedule: Q01DX009 (ip), vehicle: suspension in saline 90 % of control | [14] 86 % of control | dose: 200.0 mg/kg/injection, schedule: Q01DX009 (ip), vehicle: suspension in saline 99 % of control
